Assay results from patent US12679807B2 (MERCK SHARP & DOHME LLC, priority 2020, dated 2026).

biological target: T1, GCS enzyme contained within Golgi preparations isolated from human A375 malignant melanoma skin cells (Homo sapiens, UniProt Q16739); test: UDP-Glo glucosylceramide synthase biochemical assay; details: crude Golgi preparation from A375 cells; C6 ceramide and UDP-glucose substrates; 20 h incubation at room temperature; UDP detected by luminescence
T1 construct: endogenous levels of GCS enzyme contained within Golgi preparations isolated from human A375 malignant melanoma skin cells; endogenous in cells; host or cells: A375 human malignant melanoma cells (crude Golgi preparation)
T1 sequence (Q16739 1-394): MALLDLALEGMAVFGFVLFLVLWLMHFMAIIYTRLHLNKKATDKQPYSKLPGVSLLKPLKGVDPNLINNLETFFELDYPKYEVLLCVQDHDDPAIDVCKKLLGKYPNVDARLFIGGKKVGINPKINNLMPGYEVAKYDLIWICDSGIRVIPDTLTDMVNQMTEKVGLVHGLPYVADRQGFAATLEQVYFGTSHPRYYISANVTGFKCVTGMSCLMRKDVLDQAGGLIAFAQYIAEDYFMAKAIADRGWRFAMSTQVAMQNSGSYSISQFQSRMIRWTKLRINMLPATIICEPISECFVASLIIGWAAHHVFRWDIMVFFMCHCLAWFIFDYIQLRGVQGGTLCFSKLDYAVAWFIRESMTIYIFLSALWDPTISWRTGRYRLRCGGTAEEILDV
From the text: UDP-Glo™ Glucosylceramide Synthase Biochemical Assay
A UDP-Glo™ glucosylceramide synthase biochemical assay was utilized to evaluate the effect of test compounds on the activity of endogenous levels of GCS enzyme contained within Golgi preparations isolated from human A375 malignant melanoma skin cells. The UDP-Glo™ glucosylceramide synthase assay uses UDP-Glucose as a nucleotide-glycosyl donor and ceramide as substrate acceptor molecules. In the reaction, glucosylceramide synthase (GCS) transfers glucose from UDP-Glucose to ceramide. Glucosylceramide and UDP are released as products.
Using Promega's UDP-Glo™ Glycosyltransferase assay kit (Promega Corporation, Madison, WI, USA (Promega)), GCS activity was indirectly measured by detecting the amount of UDP produced. An aliquot of GCS enzyme (1.5 μg crude golgi preparation, total protein) and titrated test compound were aliquoted to each well and incubated for 30 minutes at room temperature. […] An equivalent volume of substrate mixture was then added to each well. Following a 20 h incubation at room temperature to allow for GCS turnover of substrate, an equal volume of UDP detection reagent (Promega) was added to each well and incubated for an additional 75 minutes at room temperature to simultaneously convert the accumulated UDP product into ATP and generate light in a luciferase reaction. The generated light was detected using a luminometer. […] luminescence values (RLUs) were normalized to mean “min” and “max” effects, as determined on each plate. […] Values for % Emax and EC50 were determined by best-fitting the normalized data to a curve in Activity Base along a four-parameter logistic nonlinear regression (4PL) model (based on the Levenberg-Marquardt algorithm and defined by the equation below):
[formula] where: n is 4 PMin (bottom of the curve); m is 4 PMax (top of the curve); i is IP (inflection point of curve); and p is slope. See Levenberg, K., “A Method for the Solution of Certain Problems in Least Squares”, Quart. Appl. Math. […] Math.

Structure (SMILES)	EC50
C[C@@H](N1Cc2cccc(NC(=O)c3c(C(F)(F)F)cnc4ccccc34)c2C1=O)C(C)(C)O [Compound 127, (R)-N-(2-(3-hydroxy-3-methylbutan-2-yl)-3-oxoisoindolin-4-yl)-3-(trifluoromethyl)quinoline-4-carboxamide]	38 nM
O=C(Nc1cccc2c1C(=O)N(C(C1CC1)C1CC1)C2)c1ccnc2[nH]ccc12 [Compound 141, N-(2-(dicyclopropylmethyl)-3-oxoisoindolin-4-yl)-1H-pyrrolo[2,3-b]pyridine-4-carboxamide]	140 nM
CC(C)[C@H](CO)N1Cc2cccc(NC(=O)c3c(Cl)ccc(F)c3Cl)c2C1=O [Compound 124, (R)-2,6-dichloro-3-fluoro-N-(2-(1-hydroxy-3-methylbutan-2-yl)-3-oxoisoindolin-4-yl)benzamide]	26 nM
CC(C)(O)[C@@H](C1CC1)N1Cc2cccc(-c3cccc(-c4ncon4)c3)c2C1=O [Compound 82, (R)-7-(3-(1,2,4-oxadiazol-3-yl)phenyl)-2-(1-cyclopropyl-2-hydroxy-2-methylpropyl)isoindolin-1-one]	46 nM
Cc1cnc2c(c1/C=C/c1cccc3c1C(=O)N(C(C1CC1)C(C)(C)O)C3)OCO2 (single isomer, unassigned) [Compound 175, (R or S)-(E)-2-(1-Cyclopropyl-2-hydroxy-2-methylpropyl)-7-(2-(6-methyl-[1,3]dioxolo[4,5-b]pyridin-7-yl)vinyl)isoindolin-1-one]	27 nM
C[C@@H](N1Cc2cccc(NC(=O)c3nc(C(F)(F)F)ccc3Cl)c2C1=O)C(C)(C)O [Compound 129, (R)-3-chloro-N-(2-(3-hydroxy-3-methylbutan-2-yl)-3-oxoisoindolin-4-yl)-6-(trifluoromethyl)picolinamide]	38 nM
CCOc1ccccc1C(=O)Nc1cccc2c1C(=O)N(C(CO)C1CCC1)C2 (racemic) [Compound 101, (R and S)-N-(2-(1-cyclobutyl-2-hydroxyethyl)-3-oxoisoindolin-4-yl)-2-ethoxybenzamide]	160 nM
Cc1nnc(-c2ccc(-c3cccc4c3C(=O)N([C@H](C3CC3)C(C)(C)O)C4C)cc2)o1 (single isomer, unassigned) [Compound 62, (R or S)-2-((R)-1-Cyclopropyl-2-hydroxy-2-methylpropyl)-3-methyl-7-(4-(5-methyl-1,3,4-oxadiazol-2-yl)phenyl)isoindolin-1-one]	53 nM
O=C(Nc1cccc2c1C(=O)N(CC1CC1)C2)c1c(Cl)cncc1Cl [Compound 139, 3,5-dichloro-N-(2-(cyclopropylmethyl)-3-oxoisoindolin-4-yl)isonicotinamide]	120 nM
Cn1cc(-c2ccc(-c3cncc4c3C(=O)N([C@H](C3CC3)C(C)(C)O)C4)cc2)cn1 [Compound 32, (R)-2-(1-cyclopropyl-2-hydroxy-2-methylpropyl)-7-(4-(1-methyl-1H-pyrazol-4-yl)phenyl)-2,3-dihydro-1H-pyrrolo[3,4-c]pyridin-1-one]	57 nM
CC(C)(O)[C@@H](C1CC1)N1Cc2cccc(-c3cc(Cl)cc(C#N)n3)c2C1=O [Compound 92, 4-chloro-6-[2-[(1R)-1-cyclopropyl-2-hydroxy-2-methyl-propyl]-3-oxo-isoindolin-4-yl]pyridine-2-carbonitrile]	33 nM
Cc1c(F)cccc1C(=O)Nc1cccc2c1C(=O)N(C(C1CC1)C(C)(C)O)C2 (single isomer, unassigned) [Compound 119, (R or S)-N-(2-(1-cyclopropyl-2-hydroxy-2-methylpropyl)-3-oxoisoindolin-4-yl)-3-fluoro-2-methylbenzamide]	7.2 nM
Cc1ccc(Cl)c(C(=O)Nc2cccc3c2C(=O)N(C(C2CC2)C(C)(C)O)C3)c1F (single isomer, unassigned) [Compound 111, (R or S)-6-chloro-N-(2-(1-cyclopropyl-2-hydroxy-2-methylpropyl)-3-oxoisoindolin-4-yl)-2-fluoro-3-methylbenzamide]	0.26 nM
CC(C)(O)[C@@H](C1CC1)N1Cc2cccc(-c3ccc(-n4ccnn4)cc3)c2C1=O [Compound 69, (R)-7-(4-(1H-1,2,3-triazol-1-yl)phenyl)-2-(1-cyclopropyl-2-hydroxy-2-methylpropyl)isoindolin-1-one]	110 nM
Cc1cnc2c(c1CCc1cccc3c1C(=O)N(C(C1CC1)C(C)(C)O)C3)OCO2 (single isomer, unassigned) [Compound 176, (R or S)-2-(1-Cyclopropyl-2-hydroxy-2-methylpropyl)-7-(2-(6-methyl-[1,3]dioxolo[4,5-b]pyridin-7-yl)ethyl)isoindolin-1-one]	14 nM
CCOc1ccccc1C(=O)Nc1cccc2c1C(=O)N(C(C1CC1)C1CC1)C2 [Compound 98, N-(2-(Dicyclopropylmethyl)-3-oxoisoindolin-4-yl)-2-ethoxybenzamide]	43 nM
CN1Cc2cc(-c3cccc4c3C(=O)N([C@H](C3CC3)C(C)(C)O)C4)ccc2CC1=O [Compound 74, (R)-7-(2-(1-cyclopropyl-2-hydroxy-2-methylpropyl)-3-oxoisoindolin-4-yl)-2-methyl-1,4-dihydroisoquinolin-3(2H)-one]	40 nM
O=C(Nc1ccc(Cl)c2c1C(=O)N(CC1CC1)C2)c1ccnc2c1CCC2 [Compound 147, N-(7-chloro-2-(cyclopropylmethyl)-3-oxoisoindolin-4-yl)-6,7-dihydro-5H-cyclopenta[b]pyridine-4-carboxamide]	560 nM
CCc1nnc(-c2ccc(-c3cccc4c3C(=O)N([C@H](C3CC3)C(C)(C)O)C4)cc2)o1 [Compound 76, (R)-2-(1-cyclopropyl-2-hydroxy-2-methylpropyl)-7-(4-(5-ethyl-1,3,4-oxadiazol-2-yl)phenyl)isoindolin-1-one]	26 nM
CC(C)(O)C(C1CC1)N1Cc2cccc(COc3c(Cl)cnc4c3OCO4)c2C1=O (single isomer, unassigned) [Compound 177, (R or S)-7-(((6-chloro-[1,3]dioxolo[4,5-b]pyridin-7-yl)oxy)methyl)-2-(1-cyclopropyl-2-hydroxy-2-methylpropyl)isoindolin-1-one]	28 nM
Cc1cc(-c2cccc3c2C(=O)N(CCC2CN4CCC2CC4)C3)ccn1 (racemic) [Compound 54, (R and S)-7-(2-methylpyridin-4-yl)-2-(2-(quinuclidin-3-yl)ethyl)isoindolin-1-one]	97 nM
Cc1nnc(-c2ccc(-c3cncc4c3C(=O)N(C(C3CC3)C(C)(C)O)C4)cc2)o1 (single isomer, unassigned) [Compound 31, (R or S)-2-(1-cyclopropyl-2-hydroxy-2-methylpropyl)-7-(4-(5-methyl-1,3,4-oxadiazol-2-yl)phenyl)-2,3-dihydro-1H-pyrrolo[3,4-c]pyridin-1-one]	180 nM
Cc1cc(-c2ccnc3c2C(=O)N([C@H](C2CC2)C(C)(C)O)C3)c(F)cc1-c1cnn(C)c1 [Compound 35, (R)-6-(1-cyclopropyl-2-hydroxy-2-methylpropyl)-4-(2-fluoro-5-methyl-4-(1-methyl-1H-pyrazol-4-yl)phenyl)-6,7-dihydro-5H-pyrrolo[3,4-b]pyridin-5-one]	6.8 nM
CCOc1ccccc1C(=O)Nc1cccc2c1C(=O)N([C@H](C)C(C)(C)O)C2 [Compound 99, (R)-2-Ethoxy-N-(2-(3-hydroxy-3-methylbutan-2-yl)-3-oxoisoindolin-4-yl)benzamide]	140 nM
CC(C)(O)C(C1CC1)N1Cc2cccc(NC(=O)c3ccnc4c3CCO4)c2C1=O (single isomer, unassigned) [Compound 162, (R or S)-N-(2-(1-cyclopropyl-2-hydroxy-2-methylpropyl)-3-oxoisoindolin-4-yl)-2,3-dihydrofuro[2,3-b]pyridine-4-carboxamide]	23 nM
Cc1cc(-c2ccc(-c3cccc4c3C(=O)N([C@H](C3CC3)C(C)(C)O)C4)cc2)on1 [Compound 90, (R)-2-(1-cyclopropyl-2-hydroxy-2-methylpropyl)-7-(4-(3-methylisoxazol-5-yl)phenyl)isoindolin-1-one]	2 nM
CCOc1ccccc1C(=O)Nc1cccc2c1C(=O)N(CC1(O)CCC1)C2 [Compound 105, 2-ethoxy-N-(2-((1-hydroxycyclobutyl)methyl)-3-oxoisoindolin-4-yl)benzamide]	650 nM
